Source: patent publication US20260028334A1, “N-(3-(BENZO[B]THIOPHENE-2-CARBOXAMIDO)-PHENYL)-2,3-DIHYDROBENZO[B][1,4]DIOXINE-6-CARBOXAMIDE DERIVATIVES AND RELATED COMPOUNDS AS LACTATE/ATP PRODUCTION INHIBITORS FOR THE TREATMENT OF CANCER” (WMT Aktiengesellschaft, priority 2022, published 2026)

Experiments:
[1] = test system: lactate production; assay: Lactate production inhibition assay; type: cell-based; details: summary of Table 1
From the text: (§1) Recombinant Lactate Dehydrogenase A (LDHA) was used to convert lactate in tissue culture supernatants to pyruvate, with the concomitant reduction of NAD^+ to NADH. The electron acceptor 1-methoxyphenazine methosulfate (MPMS) was then reduced by the generated NADH, thereby regenerating NAD+. Reduced 1-methoxyphenazine methosulfate is used in turn to reduce Water Soluble Tetrazolium 8 (WST8) to an orange WST8 formazan product. The assay is adapted from the publication “Application of WST-8 based colorimetric NAD(P)H detection for quantitative dehydrogenase assays” described in Chamchoy et al., BMC Biochemistry (2019) 20(1):4.
(§2) Cells were plated at 4,000 per well in 96-well plate in a medium of high glucose DMEM (PAN) supplemented with 10% FBS (PAN), 2 mM glutamine-alanine (PAN), 2 mM pyruvate (Sigma) and 10 mL/L penicillin-streptomycin (PAN) and grown at 37° C. in 0.5% O2, 5% CO2 and 75% humidity. For hypoxia, cells were grown and treated in the Whitley H35 Hypoxystation (Don Whitley Scientific) at 37° C. in 0.5% O2, 5% CO2 and 75% humidity. The next day, cells were induced with test compounds (FIG. 2: compounds of examples 3/16, 3/8, 10 at 10000, 3333, 1111, 370, 123, 41, 14, 5 and 1.5 nM; FIG. 7: compounds of examples 3/16, 3/8, 10 at 41, 14, 4.6 nM and Phenformin at 100, 50, 25, 12.5, 6.25 μM; FIGS. 8C and 8D: compounds of example 3/16, 3/8, 10, 3/19, 30 and 30/2 at 10000, 3333, 1111, 370, 123, 41, 14, 5 and 1.5 nM), as well as with vehicle (DMSO) only, for 48 hours. After this time, the medium was removed from the cells to measure extracellular lactate. To detect extracellular lactate, cell supernatants are diluted 1:5 in assay buffer (0.2 M tris, pH 8.2) by adding 10 μl cell supernatant+40 μl buffer in a 96-well plate. Assay substrate mix is prepared by adding NAD+ (3.75 mM), WST-8 (0.9 mM), MPMS (10 mM) and recombinant LDHA, expressed in E. coli as an N-terminal hexahistidine tagged fusion protein, is added to a final concentration of 0.8 μg/ml in assay buffer. Thereafter, 80 μl of substrate mix is added to 20 μl of diluted cell supernatant in a 96-well flat-bottomed plate and the absorbance at 460 nm determined at one minute intervals over a 30 minute period. A standard curve of known lactate concentrations of 10, 8, 6, 4, 1, 0.5 and 0.25 mM was constructed for each assay plate.

[2] = test system: Panc02 and SKOV3 cells; assay: Assay for inhibition of ATP production (FIGS. 8A and 8B); type: cell-based; details: 48 hours treatment, 1.5 to 10000 nM
Experimental: The assay determines the amount of ATP in cells in culture.
Cells were plated at 4,000 per well in 96-well plate in a medium of high glucose DMEM (PAN) supplemented with 10% FBS (PAN), 2 mM glutamine-alanine (PAN), 2 mM pyruvate (Sigma) and 10 mL/L penicillin-streptomycin and grown at 37° C. in 0.5% O2, 5% CO2 and 75% humidity. For hypoxia, cells were grown and treated in the Whitley H35 Hypoxystation (Don Whitley Scientific) at 37° C. in 0.5% O2, 5% CO2 and 75% humidity. The next day, cells were induced with test compounds (FIG. 1: compounds of examples 3/16, 3/8, 10 at 10000, 3333, 1111, 370, 123, 41, 14, 5 and 1.5 nM; FIGS. 8A and 8B: compounds of example 3/19, 30 and 30/2 at 10000, 3333, 1111, 370, 123, 41, 14, 5 and 1.5 nM), as well as with vehicle (DMSO) only, for 48 hours. After this time, the medium was removed from the cells and intracellular ATP levels were determined using the Promega CellTiter-Glo 2.0 assay protocol (Promega, G9241). To estimate the effect of compounds on the ATP production, sample values were compared to the values of DMSO only. IC50 values were generated by plotting the luciferase counts against compound concentration.

[3] = test system: Panc02 and SKOV3 cells; assay: Lactate production inhibition assay (FIGS. 8C and 8D); type: cell-based; details: 48 hours treatment, 1.5 to 10000 nM
From the text: as §1, §2

[4] = test system: ER stress markers CHAC and CHOP/DDIT3; assay: Gene expression analysis by qPCR (FIG. 8E-8AB); type: cell-based; details: Panc02 and SKOV3 cells, 10 nM, 0.5, 1, 2 and 4 hours
Experimental: Cells were plated at 40,000 cells per ml in medium of high glucose DMEM (PAN) supplemented with 10% FBS (PAN), 2 mM glutamine-alanine (PAN), 2 mM pyruvate (Sigma) and 10 mL/L penicillin-streptomycin (PAN), and grown at 37° C. in 0.5% O2, 5% CO2 and 75% humidity. Next day, cells were induced with test compounds (FIG. 3: compounds of example 3/16, 3/8, 10 at 10 nM; FIG. 8E-8AB: compounds of example 3/16, 3/8, 10, 3/19, 30 and 30/2 at 10 nM) 0.5, 1, 2 and 4 hours, as well as with vehicle (DMSO) only. After this time, the cells were lysed according to protocol (Promega, SV 96 Total RNA Isolation System, #Z3505). After transferring the lysate to a 96-well-RNA binding plate, RNA was isolated and put at approx. 1 μg into cDNA synthesis using LunaScript RT SuperMix Kit (NEB, #E3010). The resulting cDNA was diluted 1:5 and used for qPCR Analysis (Taqman). Luna Universal Probe qPCR Master Mix (NEB, #M3004) is used as 2× reaction mix to which the diluted cDNA is added. The qPCR analysis was performed using QuantStudio™ 6 Flex real-time PCR systems (Thermo Fisher Scientific).
A set of primers plus probe for each gene of interest was purchased at IDT (Integrated DNA Technologies).

[5] = patients treated with the drug; cited from earlier work

O=C(Nc1ccc(F)c(NC(=O)c2cc3ccc(OCC(O)CN4CCCC4)cc3s2)c1)c1ccc2c(c1)OCCO2 (racemic) [Example 30, N-(4-Fluoro-3-(6-(2-hydroxy-3-(pyrrolidin-1-yl)propoxy)benzo[b]thiophene-2-carboxamido)phenyl)-2,3-dihydrobenzo[b][1,4]dioxine-6-carboxamide]
activity in inhibiting production of ATP and/or lactate [1]: high activity | ATP production level [2]: dose-dependent reduction | lactate levels [3]: dose-dependent downregulation | ER stress markers CHAC and CHOP/DDIT3 [4]: time-dependent upregulation

O=C(Nc1ccc(F)c(NC(=O)c2cc3ccc(OC[C@H](O)CN4CCCC4)cc3s2)c1)c1ccc2c(c1)OCCO2 (single isomer, unassigned) [Example 30/2, N-(4-Fluoro-3-(6-(2-hydroxy-3-(pyrrolidin-1-yl)propoxy)benzo[b]thiophene-2-carboxamido)phenyl)-2,3-dihydrobenzo[b][1,4]dioxine-6-carboxamide]
activity in inhibiting production of ATP and/or lactate [1]: high activity | ATP production level [2]: dose-dependent reduction | lactate levels [3]: dose-dependent downregulation | ER stress markers CHAC and CHOP/DDIT3 [4]: time-dependent upregulation

CCN1CCN(Cc2ccc3cc(C(=O)Nc4cc(NC(=O)c5ccc6c(c5)OCCO6)ccc4F)sc3n2)CC1 [3/19]
activity in inhibiting production of ATP and/or lactate [1]: high activity | ATP production level [2]: dose-dependent reduction | lactate levels [3]: dose-dependent downregulation | ER stress markers CHAC and CHOP/DDIT3 [4]: time-dependent upregulation

CN(C)C(=N)N=C(N)N [Metformin, metformin]
incidence of lactic acidosis [5]: 3 cases in 100,000 patients

[H]/N=C(/N)N/C(=N/[H])NCCc1ccccc1 [Phenformin, phenformin]
incidence of lactic acidosis [5]: 64 cases in 100,000 patients
